Key:
Type in all cases: functional
UO-31 = test: Cytotoxicity against human UO31 cells assessed as growth inhibition after 48 hrs by sulforhodamine B assay; settings: UO-31, 48 h
M14 = test: Cytotoxicity against human M14 cells assessed as cell growth at 0.01 uM after 48 hrs by sulforhodamine B assay relative to control; settings: M14, 48 h, read-out: Activity
A549 [1] = test: Cytotoxicity against human A549/ATCC cells assessed as growth inhibition after 48 hrs by sulforhodamine B assay; settings: A549, 48 h
MDA-MB-231 [2] = test: Cytotoxicity against human MDA-MB-231 cells assessed as cell growth at 0.1 uM after 48 hrs by sulforhodamine B assay relative to control; settings: MDA-MB-231, 48 h, read-out: Activity
HCT-15 = test: Cytotoxicity against human HCT15 cells assessed as growth inhibition after 48 hrs by sulforhodamine B assay; settings: HCT-15, 48 h
NCI-H522 [3] = test: Cytotoxicity against human NCI-H522 cells assessed as cell growth at 0.01 uM after 48 hrs by sulforhodamine B assay relative to control; settings: NCI-H522, 48 h, read-out: Activity
U-251 [4] = test: Cytotoxicity against human U251 cells assessed as cell growth at 0.1 uM after 48 hrs by sulforhodamine B assay relative to control; settings: U-251, 48 h, read-out: Activity
Malme-3M = test: Cytotoxicity against human MALME-3M cells assessed as cell growth at 0.1 uM after 48 hrs by sulforhodamine B assay relative to control; settings: read-out: Activity
NCI-H23 = test: Cytotoxicity against human NCI-H23 cells assessed as cell growth at 1 uM after 48 hrs by sulforhodamine B assay relative to control; settings: NCI-H23, 48 h, read-out: Activity
MDA-MB-435 = test: Cytotoxicity against human MDA-MB-435 cells assessed as cell growth at 0.1 uM after 48 hrs by sulforhodamine B assay relative to control; settings: MDA-MB-435, 48 h, read-out: Activity
SK-OV-3 = test: Cytotoxicity against human SKOV3 cells assessed as cell growth at 0.01 uM after 48 hrs by sulforhodamine B assay relative to control; settings: SK-OV-3, 48 h, read-out: Activity
T47D [5] = test: Cytotoxicity against human T47D cells assessed as growth inhibition after 48 hrs by sulforhodamine B assay
UACC-62 [6] = test: Cytotoxicity against human UACC62 cells assessed as growth inhibition after 48 hrs by sulforhodamine B assay; settings: UACC-62, 48 h
HCT-116 = test: Cytotoxicity against human HCT116 cells assessed as cell growth at 0.1 uM after 48 hrs by sulforhodamine B assay relative to control; settings: HCT-116, 48 h, read-out: Activity
A549 [7] = test: Cytotoxicity against human A549/ATCC cells assessed as cell growth at 0.01 uM after 48 hrs by sulforhodamine B assay relative to control; settings: A549, 48 h, read-out: Activity
DU-145 = test: Cytotoxicity against human DU145 cells assessed as cell growth at 1 uM after 48 hrs by sulforhodamine B assay relative to control; settings: DU-145, 48 h, read-out: Activity
T47D [8] = test: Cytotoxicity against human T47D cells assessed as cell growth at 0.01 uM after 48 hrs by sulforhodamine B assay relative to control; settings: read-out: Activity
UACC-62 [9] = test: Cytotoxicity against human UACC62 cells assessed as cell growth at 0.1 uM after 48 hrs by sulforhodamine B assay relative to control; settings: UACC-62, 48 h, read-out: Activity
NCI-H460 [10] = test: Cytotoxicity against human NCI-H460 cells assessed as cell growth at 100 uM after 48 hrs by sulforhodamine B assay relative to control; settings: NCI-H460, 48 h, read-out: Activity
RXF 393 = test: Cytotoxicity against human RXF393 cells assessed as growth inhibition after 48 hrs by sulforhodamine B assay; settings: RXF 393, 48 h
SF-268 = test: Cytotoxicity against human SF268 cells assessed as cell growth at 10 uM after 48 hrs by sulforhodamine B assay relative to control; settings: SF-268, 48 h, read-out: Activity
A498 = test: Cytotoxicity against human A498 cells assessed as cell growth at 0.01 uM after 48 hrs by sulforhodamine B assay relative to control; settings: A498, 48 h, read-out: Activity
NCI-H522 [11] = test: Cytotoxicity against human NCI-H522 cells assessed as cell growth at 10 uM after 48 hrs by sulforhodamine B assay relative to control; settings: NCI-H522, 48 h, read-out: Activity
SF-539 [12] = test: Cytotoxicity against human SF539 cells assessed as cell growth at 0.01 uM after 48 hrs by sulforhodamine B assay relative to control; settings: SF-539, 48 h, read-out: Activity
U-251 [13] = test: Cytotoxicity against human U251 cells assessed as growth inhibition after 48 hrs by sulforhodamine B assay; settings: U-251, 48 h
MDA-MB-231 [14] = test: Cytotoxicity against human MDA-MB-231 cells assessed as growth inhibition after 48 hrs by sulforhodamine B assay; settings: MDA-MB-231, 48 h
MDA-MB-468 = test: Cytotoxicity against human MDA-MB-468 cells assessed as cell growth at 100 uM after 48 hrs by sulforhodamine B assay relative to control; settings: MDA-MB-468, 48 h, read-out: Activity
NCI-H460 [15] = test: Cytotoxicity against human NCI-H460 cells assessed as cell growth at 1 uM after 48 hrs by sulforhodamine B assay relative to control; settings: NCI-H460, 48 h, read-out: Activity
KM12 = test: Cytotoxicity against human KM12 cells assessed as cell growth at 100 uM after 48 hrs by sulforhodamine B assay relative to control; settings: KM12, 48 h, read-out: Activity
OVCAR-5 = test: Cytotoxicity against human OVCAR5 cells assessed as cell growth at 100 uM after 48 hrs by sulforhodamine B assay relative to control; settings: OVCAR-5, 48 h, read-out: Activity
OVCAR-3 = test: Cytotoxicity against human OVCAR3 cells assessed as cell growth at 1 uM after 48 hrs by sulforhodamine B assay relative to control; settings: OVCAR-3, 48 h, read-out: Activity
T47D [16] = test: Cytotoxicity against human T47D cells assessed as cell growth at 0.1 uM after 48 hrs by sulforhodamine B assay relative to control; settings: read-out: Activity
SF-539 [17] = test: Cytotoxicity against human SF539 cells assessed as cell growth at 10 uM after 48 hrs by sulforhodamine B assay relative to control; settings: SF-539, 48 h, read-out: Activity
NCI/ADR-RES = test: Cytotoxicity against human NCI/ADR-RES cells assessed as growth inhibition after 48 hrs by sulforhodamine B assay
SK-MEL-5 = test: Cytotoxicity against human SK-MEL-5 cells assessed as cell growth at 1 uM after 48 hrs by sulforhodamine B assay relative to control; settings: SK-MEL-5, 48 h, read-out: Activity

With `COc1ccc(-c2cc(/C=C/C(=O)c3cc(OC)c(OC)c(OC)c3)[nH]n2)cc1OC` the GI50 (UO-31) was 1.27 µM, the LC50 (UO-31) was 5.29 µM and the TGI (UO-31) was 2.59 µM. The growth at 0.01 µM (M14) was 96%, the GI50 (A549 [1]) was 2.39 µM and the LC50 (concentration giving 50% net cell kill) (A549 [1]) was 62.4 µM. The TGI (A549 [1]) was 9.34 µM, the growth at 0.1 µM (MDA-MB-231 [2]) was 93% and the GI50 (HCT-15) was 1.19 µM. For the same molecule, the LC50 (HCT-15) was over 100 µM, the TGI (HCT-15) was 3.85 µM and the growth at 0.01 µM (NCI-H522 [3]) was 89%. It also gave a growth at 0.1 µM (U-251 [4]) of 92%, a growth at 0.1 µM (Malme-3M) of 89% and a growth at 1 µM (NCI-H23) of 87%. For the same molecule, the growth at 0.1 µM (MDA-MB-435) was 91%, the growth at 0.01 µM (SK-OV-3) was 97% and the GI50 (T47D [5]) was 1.01 µM. The LC50 (T47D [5]) was over 100 µM, the TGI (T47D [5]) was 3.76 µM and the GI50 (UACC-62 [6]) was 1.79 µM. For the same molecule, the LC50 (UACC-62 [6]) was 8.39 µM, the TGI (UACC-62 [6]) was 3.88 µM and the growth at 0.1 µM (HCT-116) was 88%. It also gave a growth at 0.01 µM (A549 [7]) of 101%, a growth at 1 µM (DU-145) of 87% and a growth at 0.01 µM (T47D [8]) of 91%. It also gave a growth at 0.1 µM (UACC-62 [9]) of 98%, a growth at 100 µM (NCI-H460 [10]) of -60% and a GI50 (RXF 393) of 1.53 µM. It also gave an LC50 (concentration killing 50% of cells) (RXF 393) of 6.51 µM, a TGI (RXF 393) of 3.16 µM and a growth at 10 µM (SF-268) of -56%. It also gave a growth at 0.01 µM (A498) of 99%, a growth at 10 µM (NCI-H522 [11]) of -94% and a growth at 0.01 µM (SF-539 [12]) of 95%. For the same molecule, the GI50 (U-251 [13]) was 1.24 µM, the LC50 (U-251 [13]) was 5.13 µM and the TGI (U-251 [13]) was 2.53 µM. The GI50 (MDA-MB-231 [14]) was 2.02 µM, the LC50 (MDA-MB-231 [14]) was 55.4 µM and the TGI (MDA-MB-231 [14]) was 13.5 µM. It also gave a growth at 100 µM (MDA-MB-468) of -58%, a growth at 1 µM (NCI-H460 [15]) of 52% and a growth at 100 µM (KM12) of -64%. The growth at 100 µM (OVCAR-5) was -70%, the growth at 1 µM (OVCAR-3) was 84% and the growth at 0.1 µM (T47D [16]) was 83%. It also gave a growth at 10 µM (SF-539 [17]) of -85%, a GI50 (NCI/ADR-RES) of 2.69 µM and an LC50 (NCI/ADR-RES) of over 100 µM. The TGI (NCI/ADR-RES) was 37 µM and the growth at 1 µM (SK-MEL-5) was 87%.

Molecule `COc1ccc(-c2cc(/C=C/C(=O)c3ccc(N)cc3)[nH]n2)cc1OC` has a GI50 (UO-31) of 3.03 µM, an LC50 (UO-31) of 43.2 µM and a TGI (UO-31) of 13.1 µM. The growth at 0.01 µM (M14) was 95%, the GI50 (A549 [1]) was 2.75 µM and the LC50 (concentration giving 50% net cell kill) (A549 [1]) was 45.2 µM. The TGI (A549 [1]) was 10.1 µM, the growth at 0.1 µM (MDA-MB-231 [2]) was 107% and the GI50 (HCT-15) was 1.7 µM. The LC50 (HCT-15) was 33 µM, the TGI (HCT-15) was 5.37 µM and the growth at 0.01 µM (NCI-H522 [3]) was 92%. For the same molecule, the growth at 0.1 µM (U-251 [4]) was 95%, the growth at 0.1 µM (Malme-3M) was 108% and the growth at 1 µM (NCI-H23) was 99%. The growth at 0.1 µM (MDA-MB-435) was 98%, the growth at 0.01 µM (SK-OV-3) was 88% and the GI50 (T47D [5]) was 4.25 µM. For the same molecule, the LC50 (T47D [5]) was over 100 µM, the TGI (T47D [5]) was 26 µM and the GI50 (UACC-62 [6]) was 3.11 µM. It also gave an LC50 (UACC-62 [6]) of 39.6 µM, a TGI (UACC-62 [6]) of 10.9 µM and a growth at 0.1 µM (HCT-116) of 101%. It also gave a growth at 0.01 µM (A549 [7]) of 97%, a growth at 1 µM (DU-145) of 97% and a growth at 0.01 µM (T47D [8]) of 85%. For the same molecule, the growth at 0.1 µM (UACC-62 [9]) was 94%, the growth at 100 µM (NCI-H460 [10]) was -76% and the GI50 (RXF 393) was 2.15 µM. It also gave an LC50 (concentration killing 50% of cells) (RXF 393) of 15.9 µM, a TGI (RXF 393) of 5.12 µM and a growth at 10 µM (SF-268) of -49%. For the same molecule, the growth at 0.01 µM (A498) was 95%, the growth at 10 µM (NCI-H522 [11]) was -84% and the growth at 0.01 µM (SF-539 [12]) was 93%. The GI50 (U-251 [13]) was 1.74 µM, the LC50 (U-251 [13]) was 7.69 µM and the TGI (U-251 [13]) was 3.66 µM. The GI50 (MDA-MB-231 [14]) was 4.42 µM, the LC50 (MDA-MB-231 [14]) was 53.9 µM and the TGI (MDA-MB-231 [14]) was 17.2 µM. The growth at 100 µM (MDA-MB-468) was -73%, the growth at 1 µM (NCI-H460 [15]) was 94% and the growth at 100 µM (KM12) was -98%. It also gave a growth at 100 µM (OVCAR-5) of -81%, a growth at 1 µM (OVCAR-3) of 92% and a growth at 0.1 µM (T47D [16]) of 90%. For the same molecule, the growth at 10 µM (SF-539 [17]) was -73%, the GI50 (NCI/ADR-RES) was 6.21 µM and the LC50 (NCI/ADR-RES) was over 100 µM. It also gave a TGI (NCI/ADR-RES) of over 100 µM and a growth at 1 µM (SK-MEL-5) of 94%.

Source: ChEMBL document CHEMBL4138123, “Design, synthesis and biological evaluation of novel pyrazolochalcones as potential modulators of PI3K/Akt/mTOR pathway and inducers of apoptosis in breast cancer cells” (Eur J Med Chem, 2017)
